Assay results reported in PMC5823406, “Vehicle development, pharmacokinetics and toxicity of the anti-invasive agent 4-fluoro-3’,4’,5’-trimethoxychalcone in rodents” (PLoS ONE, 2018).
Where “and” joins values, the source holds several entries; their conditions need not be identical. Identical values can stand only once. Like-named read-outs stand apart in the source and are kept apart here.

Experiments:
[1] = test system: Caco-2; test: Caco-2 permeability and recovery; format: in vitro ADME; conditions: Caco-2, pH 7.4/7.4; 10 μM
Text: Table 3 In vitro physicochemical, stability and metabolism data. | column: Value

[2] = Stability and homogeneity of C16 dispersion in Medigel Sucralose; format: physicochemical; conditions: for Peak ratio C16/IS relative to first time point, Average of three wavelengths: Medigel Sucralose 235.29 mg/cup, 1.64% DMSO
Method: A pre-weighed amount of C16 was dissolved in 1 mL of DMSO and the resulting solution was delivered into a cup of Medigel sucralose (pre-warmed to room temperature) with a syringe through the foil lid. In order to facilitate even distribution of C16 in the gel, the injection was spread over several points. The resulting suspension of C16 in gel was dispersed evenly by vigorous shaking for at least two minutes. Visual control confirmed a uniform and finely dispersed suspension of C16 particles in the gel. The final DMSO concentration in the gel was 1.64%. […]
A.B. Vehicle development for repeated high-dose PO administration of C16 b. Stability test of the 300 mg/kg preparation of C16 in Medigel Sucralose at room temperature The 300 mg/kg preparation refers to a cup containing 235.29 mg of C16 and 1.64% DMSO (see Materials and Methods section of main text). Sampling took place for a solvent control cup (containing only 1.64% DMSO) , and for the medicated cup at 0.17, 5.33, 55, 102 and 144 h post preparation. Samples of 1 mL were withdrawn with syringe and needle through the lid, and mixed with 1 mL of acetonitrile. The supernatant of the resulting suspension was filtered through a Whatman 0.2 µm PTFE syringe filter and analyzed using HPLC -MS.
Instrument: Agilent 1200 series HPLC system
Column: Ascentis Express C18 column 2.7 µm (30 x 4.6 mm)
Mobile phase A: Water (H2O) + 5 mM NH4OAc
Mobile phase B: Acetonitrile
Column Temperature: 40 °C
UV Detector: Diode array detector, 190 – 400 nm
Table B. Stability of C16 in Medigel Sucralose: g radient program .
Time (min) Flow rate (mL/min) A (%) B (%)
Mass spectrometer conditions
Instrument: Agilent 1100 series VL mass spectrometer
Ionization mode: API-ES, positive ions
Main derivative: Z-isomer of C16
Retention time : 3.34 min
Table C. Stability of C16 in Medigel Sucralose: evolution of peak areas of IS, C16 and its Z-isomer in time for three wavelengths. […]
time IS peak C16 Z- Ratio IS peak C16 Z- Ratio IS peak C16 Z- Ratio
(h) area peak isomer (C16/IS area peak isomer (C16/IS area peak isomer (C16/IS (mAU.s) area peak peak (mAU.s) area peak peak (mAU.s) area peak peak
(mAU.s) area area) (mAU.s) area area) (mAU.s) area area)
Peak ratios for stability assessment
Peak ratios for C16/IS, relative to the first time point, were calculated for three wavelengths (Table D).
Table D. Stability of C16 in Medigel Sucralose: peak ratios for C16/IS, relative to first time point, for three wavelengths.
Peak ratios for homogeneity assessment of a 300 mg/kg C16-doped gel
The 300 mg/kg preparation refers to a cup containing 235.29 mg of C16 and 1.64% DMSO. After preparation (see ‘Materials and Methods’ section of main text), the gel was sampled through the lid at five sites (Fig A).
Fig A. Sampling of C16-doped Medigel Sucralose.
The samples were analyzed according to the method described above for the stability test of C16 in Medigel Sucralose […]
Table E. Peak areas of IS, C16 and its Z-isomer at five sampling sites for three wavelengths. […]
sites IS peak C16 peak Ratio IS peak C16 peak Ratio IS peak C16 peak Ratio area area (C16/IS area area (C16/IS area area (C16/IS
(mAU.s) (mAU.s) peak area) (mAU.s) (mAU.s) peak area) (mAU.s) (mAU.s) peak area) […]
Individual plasma concentrations for C16 are shown in Table F and Table G. All data are expressed as ng/mL of the free drug. Samples that were below the limit of quantitation were not used in the calculation of averages. Plasma concentrations versus time data are plotted in Fig B and Fig C. Measured dosing concentrations were used in all pharmacokinetic calculations.
(1 picture or pasted object on this page, not shown here)

[3] = Solubility in vehicles, laser nephelometry; format: physicochemical
Method: The solubility of C16 was tested at 10 and 30 mg/mL for the indicated vehicles using laser nephelometry in 96-well plates (BMG LabTech NEPHELOstar microplate reader, BMG LabTech, USA). Solutions were prepared using solubilizing techniques including sonication, heating up to 37 °C and vortex. Solubility data was categorized as soluble (result ≤ +15 of blank), slightly soluble (result between +15 and +25 of blank) or not soluble (result > +25 of blank).
C16 has low aqueous solubility, which limits the choice of preclinical formulations for in vivo studies. In this work, thirteen vehicles were evaluated for their applicability in single-dose studies (Table 1). For commonly used systems (entries a-e) visual determination of solubility was conducted, while for the more complex systems solubility was assessed by laser nephelometry.

[4] = High-dose PK, single PO 300 mg/kg via oral gavage; format: in vivo; conditions: single 300 mg/kg oral gavage; for Individual whole blood concentration: animals 4-1 to 4-3
Method: On the morning of day 7, the water group received a single PO administration of 300 mg/kg C16 (10 mL/kg) for high-dose PK evaluation, using a 30 mg/mL solution of C16 in 10% Solutol HS-15 / 90% PEG 600 (prepared as described above). To that extent, blood was collected via the tail vein at the 30 and 60 min time point, and via cardiac exsanguination after 180 min (protocol as for other cohorts). Samples for hematological and biochemical analysis were also prepared. Afterward, animals were sacrificed by cervical dislocation.
Blood samples (25 μL) were collected via the tail vein or cardiac puncture (last time point). Blood was pipetted into a tube with 25 μL heparinized water (1 μL of sodium heparin (1000 units/mL) + 24 μL water) within 30 seconds of collection. The sample was pipetted up and down five times, immediately frozen on dry ice, and stored at -60°C to -80°C until analysis.
E.C. Whole blood C16 levels […]
BLOQ: below the limit of quantitation (0.5 ng/mL). Samples that were below the limit of quantification were not used in the calculation of
Table BB. […]

COc1cc(C(=O)/C=C/c2ccc(F)cc2)cc(OC)c1OC [C16, 4-fluoro-3’,4’,5’-trimethoxychalcone]
Permeability A-B [1]: 10.4 10^−6 cm/s
Permeability A-B: recovery [1]: 17%
Permeability B-A [1]: 4.9 10^−6 cm/s
Permeability B-A: recovery [1]: 66%
Peak ratio C16/IS relative to first time point, Average of three wavelengths ([2]; room temperature, 5.3 h): 90.3
Peak ratio C16/IS relative to first time point, Average of three wavelengths ([2]; room temperature, 55 h): 95.0
Peak ratio C16/IS relative to first time point, Average of three wavelengths ([2]; room temperature, 102 h): 96.9
Peak ratio C16/IS relative to first time point, Average of three wavelengths ([2]; room temperature, 144 h): 85.8
Distribution of compound in Medigel Sucralose ([2]; five sampling sites): uniformly distributed
Stability of suspension in Medigel Sucralose ([2]; room temperature, over 144 h): stable
Solubility of C16 in vehicle: Result ([3]; 10% Cremophor EL / 10% EtOH, 10 mg/mL): Insoluble ^b
Solubility of C16 in vehicle: Result ([3]; 10% Cremophor EL / 10% EtOH, 30 mg/mL): Insoluble ^b
Solubility of C16 in vehicle: Result ([3]; 10% DMA / 10% EtOH / 20% PG, 10 mg/mL): Insoluble ^b
Solubility of C16 in vehicle: Result ([3]; 10% DMA / 10% EtOH / 20% PG, 30 mg/mL): Insoluble ^b
Solubility of C16 in vehicle: Result ([3]; 10% Dimethylacetamide (DMA) / 90% PEG 600, 10 mg/mL): Soluble ^b
Solubility of C16 in vehicle: Result ([3]; 10% Dimethylacetamide (DMA) / 90% PEG 600, 30 mg/mL): Soluble ^b
Solubility of C16 in vehicle: Result ([3]; 10% Solutol HS-15 / 90% PEG 600, 10 mg/mL): Soluble ^b
Solubility of C16 in vehicle: Result ([3]; 10% Solutol HS-15 / 90% PEG 600, 30 mg/mL): Soluble ^b
Solubility of C16 in vehicle: Result ([3]; 10%DMA / 20%PG / 40% PEG 400, 10 mg/mL): Insoluble ^b
Solubility of C16 in vehicle: Result ([3]; 10%DMA / 20%PG / 40% PEG 400, 30 mg/mL): Insoluble ^b
Solubility of C16 in vehicle: Result ([3]; 20% PEG 400 / 10% Cremophor EL, 10 mg/mL): Insoluble ^b
Solubility of C16 in vehicle: Result ([3]; 20% PEG 400 / 10% Cremophor EL, 30 mg/mL): Insoluble ^b
Solubility of C16 in vehicle: Result ([3]; 40% PEG 400 / 10% EtOH, 10 mg/mL): Insoluble ^b
Solubility of C16 in vehicle: Result ([3]; 40% PEG 400 / 10% EtOH, 30 mg/mL): Insoluble ^b
Solubility of C16 in vehicle: Result ([3]; 100% Corn oil, 10 mg/mL): Insoluble ^b
Solubility of C16 in vehicle: Result ([3]; 100% Corn oil, 30 mg/mL): Insoluble ^b
concentration at 0.5 h ([4]; male, CD-1, mouse, whole blood, po, 0.5 h, Average±SD): 32.3 ± 24.2 ng/mL
concentration at 1 h ([4]; male, CD-1, mouse, whole blood, po, 1 h, Average±SD): 28.3 ± 12.1 ng/mL
concentration at 3 h ([4]; male, CD-1, mouse, whole blood, po, 3 h, Average±SD, read-out: Whole blood concentration): 15.1 ± 2.9 ng/mL
Individual whole blood concentration ([4]; mouse, 0.5 h): 19.3 ng/mL and 60.2 ng/mL and 17.5 ng/mL
Individual whole blood concentration ([4]; mouse, 1 h): 28.5 ng/mL and 40.3 ng/mL and 16.2 ng/mL
Individual whole blood concentration ([4]; mouse, 3 h): 13.9 ng/mL and 13.1 ng/mL
concentration at 3 h ([4]; mouse, whole blood, po, 3 h, animals 4-1 to 4-3, read-out: Individual whole blood concentration): 18.4 ng/mL
